Source: patent US11857601B2, “Pharmaceutical composition for cancer treatment comprising fusion protein including IL-2 protein and CD80 protein and anticancer drug” (GI INNOVATION, INC., priority 2020, dated 2024)

Experiments:
[1] = target: T1, IL-2Rβ (Homo sapiens, UniProt P14784); experiment: Binding to IL-2Rβ (Octet, Ni-NTA biosensor); settings: as compared with GI101w and Proleukin
T1 construct: purchased Acro CD2-H5221
T1 sequence (P14784 27-551): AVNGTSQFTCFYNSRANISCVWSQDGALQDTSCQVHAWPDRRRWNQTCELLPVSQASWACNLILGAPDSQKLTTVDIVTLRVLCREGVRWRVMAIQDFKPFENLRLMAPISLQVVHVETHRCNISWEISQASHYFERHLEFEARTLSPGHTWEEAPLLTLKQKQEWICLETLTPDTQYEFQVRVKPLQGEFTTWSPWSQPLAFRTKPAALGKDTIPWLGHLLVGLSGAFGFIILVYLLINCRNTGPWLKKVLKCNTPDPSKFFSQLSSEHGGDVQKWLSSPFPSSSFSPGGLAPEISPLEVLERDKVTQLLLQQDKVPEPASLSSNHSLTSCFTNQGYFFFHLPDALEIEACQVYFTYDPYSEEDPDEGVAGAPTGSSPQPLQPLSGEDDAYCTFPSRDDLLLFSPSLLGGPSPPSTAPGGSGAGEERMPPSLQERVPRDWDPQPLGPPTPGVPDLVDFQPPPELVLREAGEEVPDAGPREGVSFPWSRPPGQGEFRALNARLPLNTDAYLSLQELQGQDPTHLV
Protocol: The binding ability for IL-2Rα was measured using the AR2G biosensor, and the binding ability for IL-2Rβ was measured using the Ni-NTA biosensors (Nickel charged Tris-NTA, Ni-NTA Biosensors, ForteBio, 18-5101).
Meanwhile, a ligand (IL-2Rβ-His Tag, Acro, Cat: CD2-H5221) to be attached to the Ni-NTA biosensor was diluted with 1×Ni-NTA kinetic buffer to a concentration of 5 μg/ml. The diluted ligand was loaded on the Ni-NTA biosensor for 600 seconds and fixed.
Thereafter, GI101, GI101w, or Proleukin (Novartis, hIL-2), at various concentrations, to be attached to the ligand was loaded thereon for 300 seconds. Then, binding thereof was measured and dissociation thereof was also measured for 300 seconds. Binding kinetics analysis was performed using Octet Data Analysis HT software ver. 10 provided by Pall Corporation. The results are illustrated in FIGS. 22 to 24.

[2] = test system: HCT116 cells; experiment: Cancer cell killing, GI-101 and Cetuximab, HCT116 with NK cells; assay type: cell-based, human; settings: GI-101 100 nM, Cetuximab 68.6 nM, 24 hours
From the text: HCT116 cells were purchased from the Korea cell line bank and cultured in McCoy's 5A medium (ATCC) containing 10% FBS (Gibco) and 1% antibiotic/antifungal agent (Gibco). For use in cancer cell killing test, the cells were harvested using trypsin (Gibco), and then suspended in McCoy's 5A medium, and then dead cells and debris were removed using Ficoll (GE Healthcare Life Sciences) solution. The cells suspended in McCoy's 5A medium were carefully layered on ficoll solution. The cell layer with a low specific gravity formed by centrifuging at room temperature at 350×g for 20 minutes was collected with a pipette, washed with PBS (Gibco), and then centrifuged at room temperature at 350×g for 5 minutes. The separated cell layer was made into a suspension of 2×10^5 cells/mL with FBS-free RPMI1640 medium. […]
In order to identify the effect of killing the cells, a CytoTox Green reagent ([…] ™ CytoTox Green, Satorius) that binds to the DNA of cells to be killed was prepared in 1 μl per 1 mL of RPMI1640 medium containing 5% human AB serum (Sigma). The prepared medium was used for dilution of the test substance, and the effect of killing the cells could be quantitatively identified by staining the cells to be killed when the test substance was co-cultured with cancer cell lines and PBMCs. […]

[3] = test system: MDA-MB-231 cells; experiment: Cancer cell killing, GI-101 and Ribociclib, MDA-MB-231 with PBMCs; assay type: cell-based, human; settings: GI-101 100 nM, Ribociclib 913 nM, 24 hours, compared with co-culturing only cancer cells and PBMCs
From the text: This experiment was to evaluate the effect of killing cancer cells by treating MDA-MB-231 cells (human breast cancer cells) with the test substance GI-101 alone or in combination with Ribociclib substance in an in vitro environment.
MDA-MB-231 cells were purchased from the Korea cell line bank and cultured in RPMI1640 medium (Gibco) containing 10% FBS (Gibco) and 1% antibiotic/antifungal agent (Gibco). For use in cancer cell killing test, the cells were harvested using trypsin (Gibco), and then suspended in RPMI1640 medium, and then dead cells and debris were removed using Ficoll (GE Healthcare Life Sciences) solution. The cells suspended in RPMI1640 medium were carefully layered on ficoll solution. […]
In order to identify the effect of killing the cells, a CytoTox Green reagent ([…]™ CytoTox Green, Satorius) that binds to the DNA of cells to be killed was prepared in 1 μl per 1 mL of RPMI1640 medium containing 5% human AB serum (Sigma). The prepared medium was used for dilution of the test substance, and the effect of killing the cells could be quantitatively identified by staining the cells to be killed when the test substance was co-cultured with cancer cell lines and PBMCs. […]

[4] = test system: CT-26 cancer cell line; experiment: GI101 in mice transplanted with CT-26 (Exp. Ex. 16.1); assay type: in vivo, BALB/c mice
Protocol: The tumor size was measured daily.

Substance: GI101: fusion protein: human CD80 fragment, Ig hinge, Fc domain, linker, IL-2 variant (2M) (R38A, F42A); SEQ ID NO: 9
- binding ability for IL-2Rβ [1]: high binding ability
- level of killing cancer cells [2]: high level of killing cancer cells
- effect of killing cancer cells [3]: co-culturing only cancer cells and PBMCs, the effect of killing cancer cells was identified, and tended to be higher than that of treatment with GI-101 alone
- tumor inhibitory effect ([4]; GI101 0.1 mg/kg, compared with anti-PD-1 antibody group (p<0.05)): significant tumor inhibitory effect
- Tumor growth inhibition ([4]; GI101 0.1 or 1 mg/kg, anti-PD-1 5 mg/kg, anti-CTLA-4 5 mg/kg i.v., vs negative control): significant tumor growth inhibition
